The results in this text go back to patent US20120178738A1, “DIBENZO [B,F] [1,4]OXAZAPINE COMPOUNDS” (ARYX THERAPEUTICS, INC., priority 2007, published 2012).

Read-outs that look alike come from different tables or passages of the source.

One test deals with T1, human 5HT2C receptors (Homo sapiens, UniProt P28335).
T1 construct: expressed in transfected cells; host or cells: human embryo kidney cells (membranes)
T1 sequence (P28335 33-458): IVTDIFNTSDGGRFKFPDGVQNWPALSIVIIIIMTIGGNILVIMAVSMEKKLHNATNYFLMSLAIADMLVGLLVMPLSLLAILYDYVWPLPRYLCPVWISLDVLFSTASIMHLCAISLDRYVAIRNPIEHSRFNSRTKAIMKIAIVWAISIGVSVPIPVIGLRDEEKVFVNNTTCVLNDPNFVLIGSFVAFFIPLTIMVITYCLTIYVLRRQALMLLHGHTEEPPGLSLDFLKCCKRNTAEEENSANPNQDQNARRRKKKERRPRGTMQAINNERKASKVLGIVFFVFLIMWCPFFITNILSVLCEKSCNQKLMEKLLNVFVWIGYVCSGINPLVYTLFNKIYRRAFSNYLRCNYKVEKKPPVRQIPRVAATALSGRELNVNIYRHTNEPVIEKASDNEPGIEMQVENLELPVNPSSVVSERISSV
The experiment in a line: h5-HT2C receptor radioligand binding ([3H]Mesulergine). Conditions: for Ki: pKi reported on a scale of 1 through 5; for binding to 5-HT2c: in words. The gist of the method:
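Competition binding: membranes incubated to equilibrium with a single concentration of [3H]mesulergine and a range of unlabeled test compound concentrations, then filtered. Nonspecific binding defined with a known receptor blocker; displacement concentration-response, corrected for nonspecific binding, gave the affinity measure.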

The target in another test is T2, human M1 receptors (Homo sapiens, UniProt P11229).
T2 construct: expressed in transfected cells; host or cells: Chinese hamster ovary cells (membranes)
T2 sequence (P11229 1-460): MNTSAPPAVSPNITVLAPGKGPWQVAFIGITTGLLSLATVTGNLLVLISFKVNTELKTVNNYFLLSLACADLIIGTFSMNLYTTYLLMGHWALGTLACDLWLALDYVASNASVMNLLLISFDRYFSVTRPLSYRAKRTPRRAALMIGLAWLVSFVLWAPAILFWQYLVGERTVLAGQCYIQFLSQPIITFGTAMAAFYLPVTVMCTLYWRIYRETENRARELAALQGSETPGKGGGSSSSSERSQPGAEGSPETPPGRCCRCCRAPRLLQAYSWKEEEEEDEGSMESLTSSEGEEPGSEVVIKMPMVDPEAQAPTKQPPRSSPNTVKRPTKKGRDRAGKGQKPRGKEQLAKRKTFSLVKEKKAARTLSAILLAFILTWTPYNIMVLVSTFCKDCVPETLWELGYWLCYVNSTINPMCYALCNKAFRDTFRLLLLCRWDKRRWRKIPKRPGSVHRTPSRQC
The experiment in a line: hM1 receptor radioligand binding ([3H]NMS). Conditions: for Ki: pKi reported on a scale of 1 through 5; for affinity to M1 receptors: in words. The gist of the method:
(§1)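 Competition binding: membranes or tissue bearing the receptor incubated to equilibrium with a single radioligand concentration plus a range of unlabelled test compound concentrations; bound and free separated by filtration. Nonspecific binding defined with a known blocker; displacement curves corrected for it gave binding values.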

The next test addresses T3, human 5HT1A receptors (Homo sapiens, UniProt P08908).
T3 construct: expressed in transfected cells; host or cells: Chinese hamster ovary cells (membranes)
T3 sequence (P08908 1-422): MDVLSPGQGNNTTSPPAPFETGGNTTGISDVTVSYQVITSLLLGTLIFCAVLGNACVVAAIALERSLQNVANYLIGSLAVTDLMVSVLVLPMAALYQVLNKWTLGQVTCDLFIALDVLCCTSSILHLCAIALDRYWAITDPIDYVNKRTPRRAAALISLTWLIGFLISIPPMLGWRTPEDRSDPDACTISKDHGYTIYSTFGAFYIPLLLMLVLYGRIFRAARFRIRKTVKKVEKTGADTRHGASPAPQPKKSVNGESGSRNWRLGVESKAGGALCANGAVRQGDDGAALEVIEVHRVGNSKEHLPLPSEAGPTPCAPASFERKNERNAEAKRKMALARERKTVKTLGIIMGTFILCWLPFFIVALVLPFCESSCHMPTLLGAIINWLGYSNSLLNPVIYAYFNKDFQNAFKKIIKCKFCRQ
The experiment in a line: h5-HT1A receptor radioligand binding ([3H]8OH-DPAT). Conditions: for Ki: pKi reported on a scale of 1 through 5; for binding to 5-HT1A: in words. In a few lines:
as §1

The target in test [1] is T4, human D2L dopamine receptors (Homo sapiens, UniProt P14416).
T4 construct: expressed in transfected cells; host or cells: insect Sf9 cells (membranes)
T4 sequence (P14416 whole entry): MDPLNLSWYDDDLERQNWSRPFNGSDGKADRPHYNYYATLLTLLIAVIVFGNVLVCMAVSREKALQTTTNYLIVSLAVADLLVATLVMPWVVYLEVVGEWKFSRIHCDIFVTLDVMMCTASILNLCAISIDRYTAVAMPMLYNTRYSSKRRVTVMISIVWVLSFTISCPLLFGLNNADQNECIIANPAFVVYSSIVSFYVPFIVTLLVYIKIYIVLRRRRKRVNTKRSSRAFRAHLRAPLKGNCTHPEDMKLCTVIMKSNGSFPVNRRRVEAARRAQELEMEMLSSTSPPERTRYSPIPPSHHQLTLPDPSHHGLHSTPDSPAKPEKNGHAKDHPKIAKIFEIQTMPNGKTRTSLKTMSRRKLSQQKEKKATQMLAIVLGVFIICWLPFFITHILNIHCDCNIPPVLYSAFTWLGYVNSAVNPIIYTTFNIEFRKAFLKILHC
As to the kind of experiment: hD2L receptor radioligand binding ([3H]spiperone). The conditions noted are these: for Ki: pKi reported on a scale of 1 through 5, read-out: D2L (pKi) (converted). The gist of the method:
as §1

A further test concerns the target T5, 5-HT2A receptor (Rattus norvegicus, UniProt P14842).
T5 construct: Eight strips of tissue (0.5 cm long) were cut. and were mounted in 10 ml organ baths; tissue Charles River Laboratories; host or cells: rat aorta strips, endothelium removed
As to the kind of experiment: cell-based. In a few lines:
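Endothelium-denuded aortic strips from male Sprague Dawley rats held at 37° C in carbogen-aerated Krebs, pH 7.4, under 2 g resting tension. Contraction recorded as tension change, expressed as % of maximal 5-HT response; agonist EC50 from Parker–Waud fit, antagonist pKB/pA2 from concentration-ratios.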

Test [2] deals with T6, human D2s dopamine receptors (Homo sapiens, UniProt P14416).
T6 construct: expressed in transfected cells; host or cells: Chinese hamster ovary cells (membranes)
T6 sequence (P14416 1-414 isoform P14416-2): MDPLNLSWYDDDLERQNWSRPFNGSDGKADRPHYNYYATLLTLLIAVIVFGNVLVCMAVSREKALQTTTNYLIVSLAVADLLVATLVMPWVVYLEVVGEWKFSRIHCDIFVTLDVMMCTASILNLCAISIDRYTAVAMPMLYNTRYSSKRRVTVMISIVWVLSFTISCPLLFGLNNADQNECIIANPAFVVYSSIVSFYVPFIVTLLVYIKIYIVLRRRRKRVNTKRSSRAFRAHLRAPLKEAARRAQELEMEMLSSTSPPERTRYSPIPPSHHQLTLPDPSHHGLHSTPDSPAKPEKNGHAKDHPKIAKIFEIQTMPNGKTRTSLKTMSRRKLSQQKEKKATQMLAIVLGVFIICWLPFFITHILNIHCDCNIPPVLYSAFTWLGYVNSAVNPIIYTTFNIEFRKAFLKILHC
The experiment in a line: hD2S receptor radioligand binding ([3H]spiperone). The conditions noted are these: for Ki: pKi reported on a scale of 1 through 5. The gist of the method: as §1

Another test deals with T7, human H1 receptors (Homo sapiens, UniProt P35367).
T7 construct: expressed in transfected cells; host or cells: Chinese hamster ovary cells (membranes)
T7 sequence (P35367 whole entry): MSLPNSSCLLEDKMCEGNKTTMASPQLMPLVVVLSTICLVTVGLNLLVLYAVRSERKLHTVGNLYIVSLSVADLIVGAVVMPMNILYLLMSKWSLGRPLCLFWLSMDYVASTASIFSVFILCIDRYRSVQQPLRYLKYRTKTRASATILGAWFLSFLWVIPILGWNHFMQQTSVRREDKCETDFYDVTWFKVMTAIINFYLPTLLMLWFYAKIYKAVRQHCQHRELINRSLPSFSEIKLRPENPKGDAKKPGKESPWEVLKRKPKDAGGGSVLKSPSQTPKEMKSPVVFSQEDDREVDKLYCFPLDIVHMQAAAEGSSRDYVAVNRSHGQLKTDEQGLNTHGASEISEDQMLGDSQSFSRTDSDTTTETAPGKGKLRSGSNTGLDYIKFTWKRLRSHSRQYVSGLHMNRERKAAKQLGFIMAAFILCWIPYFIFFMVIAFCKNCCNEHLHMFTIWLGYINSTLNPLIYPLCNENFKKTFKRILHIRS
The experiment in a line: hH1 receptor radioligand binding ([3H]Pyrilamine). The conditions noted are these: for Ki: pKi reported on a scale of 1 through 5; for binding to H1: in words. The gist of the method: as §1

[3] abbreviates: read-out: 5HT2A (pKb) (converted).
Where [4] appears, read: relative to clozapine, in words.

T5 sequence (P14842 whole entry): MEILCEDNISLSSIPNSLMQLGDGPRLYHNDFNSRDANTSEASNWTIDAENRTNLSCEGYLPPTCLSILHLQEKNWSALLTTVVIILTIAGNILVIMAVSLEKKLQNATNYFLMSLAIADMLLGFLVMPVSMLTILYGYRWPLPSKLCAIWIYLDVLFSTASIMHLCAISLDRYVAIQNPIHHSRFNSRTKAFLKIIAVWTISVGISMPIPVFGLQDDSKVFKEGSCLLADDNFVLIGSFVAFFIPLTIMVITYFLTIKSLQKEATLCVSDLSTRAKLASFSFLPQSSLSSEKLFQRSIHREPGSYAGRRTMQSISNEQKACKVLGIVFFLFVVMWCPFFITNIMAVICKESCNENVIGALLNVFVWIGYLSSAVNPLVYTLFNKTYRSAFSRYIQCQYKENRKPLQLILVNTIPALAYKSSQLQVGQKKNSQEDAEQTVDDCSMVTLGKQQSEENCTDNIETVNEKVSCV

As to `CCOC(=O)CC1CN(C2=Nc3cc(Cl)ccc3Oc3ccccc32)CCN1` (centres unmarked) [A, (E)-ethyl 2-(4-(8-chlorodibenzo[b,f][1,4]oxazepin-11-yl)piperazin-2-yl)acetate], the Ki on human 5HT2C receptors was 0.01 to 0.0977 µM; at human M1 receptors, 5.01 to 9.77 µM; at human 5HT1A receptors, 0.1 to 0.977 µM; in test [1], 0.631 to 2.45 µM; in test [2] it was 2.51 to 9.77 µM; on human H1 receptors it was 0.1 to 0.977 µM. Besides, the Kb at 5-HT2A receptor (setting [3]) is 0.01 to 0.0309 µM.

For the compound `CCOC(=O)C[C@H]1CN(C2=Nc3cc(Cl)ccc3Oc3ccccc32)CCN1` [Compound K, (S,E)-ethyl 2-(4-(8-chlorodibenzo[b,f][1,4]oxazepin-11-yl)piperazin-2-yl)acetate], the “binding to 5-HT2c” value on human 5HT2C receptors is listed as “bind”. Also, the Ki on human 5HT2C receptors is 0.01 to 0.0977 µM; on human M1 receptors it was greater than 10 µM; on human 5HT1A receptors, 0.1 to 0.977 µM; in test [1], 0.631 to 2.45 µM; in test [2], 0.631 to 2.45 µM; on human H1 receptors, 0.1 to 0.977 µM. Further, at human 5HT2C receptors (relative to clozapine), the “affinity for the 5-HT2c receptors, fold lower than clozapine” value was 1.2 fold. In addition, the “affinity to M1 receptors” value on human M1 receptors is on record as “very low affinity”. Besides, the “binding to 5-HT1A” value at human 5HT1A receptors is “bind”. Also, the “affinity for the 5-HT1A receptors, fold higher than clozapine” value at human 5HT1A receptors (relative to clozapine) is on record as 4 fold. Besides, the “IC50 binding affinity for D2L receptors” value in test [1] (in words) is reported as “low micromolar”. Also, the “binds to D2L dopamine receptors” value in test [1] (in words) is “Binds”. Moreover, the “affinity for the D2L receptor compared with clozapine” value in test [1] (setting [4]) was “comparable”. Besides, the Kb at 5-HT2A receptor (rat aorta, Schild plot vs 5-HT, read-out: pA2, antagonist for 5-HT2A receptors (converted)) was 0.00316 µM; on 5-HT2A receptor (setting [3]), 0.00316 to 0.00977 µM. Further, the “IC50 binding affinity for D2S receptors” value in test [2] (in words) was “low micromolar”. Also, the “binds to D2S dopamine receptors” value in test [2] (in words) is “Binds”. The “affinity for the D2S receptor compared with clozapine” value in test [2] (setting [4]) is listed as “comparable”. In addition, the “binding to H1” value at human H1 receptors was “bind”. Moreover, the “affinity for the H1 receptors, fold lower than clozapine” value on human H1 receptors (relative to clozapine) was determined as 69 fold.

Take `O=C(O)C[C@H]1CN(C2=Nc3cc(Cl)ccc3Oc3ccccc32)CCN1` [Compound Q, (S,E)-2-(4-(8-chlorodibenzo[b,f][1,4]oxazepin-11-yl)piperazin-2-yl)acetic acid]: the “binding to 5-HT2c” value on human 5HT2C receptors is reported as “bind”. Moreover, the Ki at human 5HT2C receptors was 0.1 to 0.977 µM; on human M1 receptors, greater than 10 µM; on human 5HT1A receptors it was 0.1 to 0.977 µM; in test [1], greater than 10 µM; in test [2] it was greater than 10 µM; on human H1 receptors it was 0.1 to 0.977 µM. Moreover, at human M1 receptors, the “affinity to M1 receptors” value is “very low affinity”. For the same compound, the “binding to 5-HT1A” value at human 5HT1A receptors is reported as “bind”. Also, the “binds to D2L dopamine receptors” value in test [1] (in words) is given as “not”. The Kb at 5-HT2A receptor (setting [3]) was 0.01 to 0.0309 µM. Also, the “affinity for the 5-HT2A receptors, fold lower than Compound K” value at 5-HT2A receptor (relative to Compound K) was determined as 8 fold. The “binds to D2S dopamine receptors” value in test [2] (in words) is recorded as “not”. In addition, the “binding to H1” value at human H1 receptors is “bind”.

Take `O=C(C[C@H]1CN(C2=Nc3cc(Cl)ccc3Oc3ccccc32)CCN1)OC1CCCC1` [DR, (S,E)-cyclopentyl 2-(4-(8-chlorodibenzo[b,f][1,4]oxazepin-11-yl)piperazin-2-yl)acetate]: the Ki on human 5HT2C receptors was 0.01 to 0.0977 µM; on human M1 receptors, 1.26 to 2.45 µM; on human 5HT1A receptors it was 0.01 to 0.0977 µM; in test [1], 0.631 to 2.45 µM; in test [2] it was 0.631 to 2.45 µM; at human H1 receptors, 1 to 9.77 µM. Also, the Kb at 5-HT2A receptor (setting [3]) was 0.01 to 0.0309 µM.

For `O=C(C[C@H]1CN(C2=Nc3cc(Cl)ccc3Oc3ccccc32)CCN1)OC1CCOCC1` [DV, (S,E)-tetrahydro-2H-pyran-4-yl 2-(4-(8-chlorodibenzo[b,f][1,4]oxazepin-11-yl)piperazin-2-yl)acetate], the Ki on human 5HT2C receptors is 0.01 to 0.0977 µM; on human M1 receptors, greater than 10 µM; at human 5HT1A receptors it was 0.01 to 0.0977 µM; in test [1] it was 2.51 to 9.77 µM; in test [2], 0.631 to 2.45 µM; on human H1 receptors it was 1 to 9.77 µM. The Kb on 5-HT2A receptor (setting [3]) was 0.00316 to 0.00977 µM.

Take `CCC(C)OC(=O)C[C@H]1CN(C2=Nc3cc(Cl)ccc3Oc3ccccc32)CCN1C` (stereo partly drawn) [DY, sec-butyl 2-((S)-4-((E)-8-chlorodibenzo[b,f][1,4]oxazepin-11-yl)-1-methylpiperazin-2-yl)acetate]: the Ki is 0.1 to 0.977 µM at human 5HT2C receptors; greater than 10 µM at human M1 receptors; 1 to 9.77 µM on human 5HT1A receptors; 2.51 to 9.77 µM in test [2]; 0.01 to 0.0977 µM at human H1 receptors. In addition, the Kb on 5-HT2A receptor (setting [3]) was 0.01 to 0.0309 µM.
